The values below come from patent US10688082B2, “Aminopyrazine compounds with A2A antagonist properties” (Merck Sharp & Dohme Corp., priority 2015, dated 2020).

What is called Ki is the equilibrium dissociation constant of an inhibitor or competing ligand from its target. Read a low Ki as a stronger hold on the target.

T1 sequence (P29274 whole entry): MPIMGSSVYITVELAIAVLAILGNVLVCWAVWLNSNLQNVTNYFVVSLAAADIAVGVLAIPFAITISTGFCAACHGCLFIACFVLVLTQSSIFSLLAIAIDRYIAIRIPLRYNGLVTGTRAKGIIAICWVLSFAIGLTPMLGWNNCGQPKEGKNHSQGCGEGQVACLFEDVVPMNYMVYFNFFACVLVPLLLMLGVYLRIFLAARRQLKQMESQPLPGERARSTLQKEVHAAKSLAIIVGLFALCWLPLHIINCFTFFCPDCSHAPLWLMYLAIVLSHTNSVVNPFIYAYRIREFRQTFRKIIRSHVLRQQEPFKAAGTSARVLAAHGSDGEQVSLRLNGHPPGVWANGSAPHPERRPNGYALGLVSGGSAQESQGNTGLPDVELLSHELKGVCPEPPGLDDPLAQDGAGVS

This experiment addresses T1, human A2a receptor (Homo sapiens, UniProt P29274).
T1 construct: purchased Perkin-Elmer RBHA2AM400UA; host or cells: HEK293 cells (membranes)
The experiment in a line: Competition binding assay using Scintillation Proximity technology (A2a activity). The conditions noted are these: membranes from HEK293 cells expressing the human A2a receptor; 0.5 nM tritiated ligand; Cheng-Prusoff. The gist of the method:
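Membranes from HEK293 cells expressing human A2a, pretreated with adenosine deaminase, competed against 0.5 nM tritiated pyrazolotriazolopyrimidine ligand with WGA SPA beads, 1 h at room temperature with agitation. Compounds 3000–0.152 nM final; nonspecific binding with 1 μM CGS15943. Ki from […] via Cheng-Prusoff.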
`Nc1nc2ccc(F)cc2c2cc(Cc3cccnc3N3CCOCC3)nn12` [Ex-107, 9-fluoro-2-((2-morpholinopyridin-3-yl)methyl)pyrazolo[1,5-c]quinazolin-5-amine] displayed a Ki of 123 nM. Regarding `Nc1nc2c(F)cccc2c2cc(Cc3ccccc3)nn12` [Ex-108, 2-benzyl-7-fluoropyrazolo[1,5-c]quinazolin-5-amine], affinity was put at a Ki of 14 nM. To `Nc1nc2c(F)cccc2c2cc(Cc3cccc4cccnc34)nn12` [Ex-109, 7-fluoro-2-(quinolin-8-ylmethyl)pyrazolo[1,5-c]quinazolin-5-amine] belongs 6 nM; to `Nc1nc2c(F)cccc2c2cc(C(=O)N3CCN(c4ccccn4)CC3)nn12` [Ex-110, (5-amino-7-fluoropyrazolo[1,5-c]quinazolin-2-yl)(4-(pyridin-2-yl)piperazin-1-yl)methanone], 32 nM. To `Nc1nc2c(F)cccc2c2cc(C(=O)N3CCN(c4ccc(F)cc4F)CC3)nn12` [Ex-111, (5-amino-7-fluoropyrazolo[1,5-c]quinazolin-2-yl)(4-(2,4-difluorophenyl)piperazin-1-yl)methanone] belongs 94 nM; to `Nc1nc2c(F)cccc2c2cc(-c3nnc(-c4cccc5cccnc45)o3)nn12` [Ex-112, 7-fluoro-2-(5-(quinolin-8-yl)-1,3,4-oxadiazol-2-yl)pyrazolo[1,5-c]quinazolin-5-amine], 131 nM. The molecule `Nc1nc2c(F)cccc2c2cc(-c3nnc(Cc4ccc5cccnc5c4)o3)nn12` [Ex-113, 7-fluoro-2-(5-(quinolin-7-ylmethyl)-1,3,4-oxadiazol-2-yl)pyrazolo[1,5-c]quinazolin-5-amine] showed a Ki of 7 nM. `Nc1nc2ccc(F)cc2c2cc(C(=O)N3CCN(c4ccc(F)cc4F)CC3)nn12` [Ex-114, (5-amino-9-fluoropyrazolo[1,5-c]-quinazolin-2-yl)(4-(2,4-difluorophenyl)piperazin-1-yl)methanone] displayed a Ki of 8 nM. In the case of `Nc1nc2ccc(F)cc2c2cc(C(=O)N3CCN(c4ccccn4)CC3)nn12` [Ex-115, (5-amino-9-fluoropyrazolo[1,5-c]-quinazolin-2-yl)(4-(pyridin-2-yl)-piperazin-1-yl)methanone] it was 41 nM.
